# Measurements as given in ChEMBL document CHEMBL5108075, “Sialidase Inhibitors with Different Mechanisms” (J Med Chem, 2022).
# Assay: Inhibition of Trypanosoma cruzi trans-sialidase
smiles,measurement,value
CC(=O)N[C@H]1[C@H]([C@H](O)[C@H](O)CO)OC(Oc2ccc([N+](=O)[O-])cc2C(F)F)(C(=O)O)C[C@H]1O (stereo partly specified),IC50,600 µM
